Series [1] can be described thus: Metabolic stability in human liver microsomes. The series is classed as in vitro ADME. The conditions noted are these: pH 7.4, read-out: Metabolic Stability HLM t1/2. The procedure:
Assays employed human liver microsomes (HLMs, 20 mg/mL) from Xenotech. A 10 mM NADPH stock was prepared in deionized H2O, and test compounds were dissolved in 100% MeOH to a final concentration of 10 mM. The stock solutions were diluted to 500 μM in 100 mM potassium phosphate buffer (pH 7.4), keeping the final MeOH concentration below 0.2%. Reaction mixtures were prepared by combining 928 μL phosphate buffer, 55 μL liver microsomes, and the test compound solution to a final concentration of 3 μM. Verapamil was used as a positive control. The reactions were initiated with the addition of 110 μL of 10 mM NADPH. Aliquots were taken in duplicate at 0, 5, 10, 15, and 30 min, quenched with 100 μL of cold MeOH containing 2 μM internal standard (d 5-7-ethoxy coumarin), and centrifuged at 12,000 RCF for 5 min. The supernatants were then transferred to LC-MS vials for analysis. The average of each duplicate was normalized to the 0 min time point, representing 100% remaining (0% metabolism).

Series [2] is described as follows: Metabolic stability in mouse liver microsomes. The series is classed as in vitro ADME. Particulars: pH 7.4, read-out: Metabolic Stability MLM t1/2. On the technique in general: Microsomes from liver hold many membrane-bound enzymes, among them those of drug oxidation.
A short description of series [3]: Cytotoxicity, ATP luminescence (Cell Titer Glow) assay. Particulars: human.
Protocol: To measure cytotoxicity, HeLa-derived TZM-bl cells , were treated with serial dilutions of each drug, and viability was assessed after 48 h. Two methods were used: an ATP luminescence assay, which measures cellular ATP levels as an indicator of metabolic activity (compounds 8a–d), and an MTT assay, which evaluates cell viability via mitochondrial enzymatic activity (compounds 15b, 21a, and 21b).
The TZM-bl cell line (BEI Resources, ARP-8129) was used to evaluate both cell viability and HIV pseudovirus infectivity reduction. Cytotoxicity in this cell line was measured via two methods. The first method, an ATP luminescence assay, was used for compounds 15a, 15b, 21a, and 21b as such: 6000 TZM-bl cells per well were seeded in a 96-well plate and incubated at 37 °C with 5% CO2 for 24 h. Compounds were prepared as serial dilutions (final concentrations of 1, 0.2, 0.04, 0.008, and 0.0016 μM) in complete DMEM with DEAE-Dextran at 40 μg/mL to mimic HIV infectivity conditions. Solutions were added to the cells and incubated for another 48 h. Viability was assessed using the Promega Cell Titer Glow (CTG) Assay (cat No. G9242) by adding a 50% PBS-CTG solution to each well and measuring luminescence, which correlates with ATP levels, on an Agilent BioTek Synergy HT reader. Cytotoxicity of compounds 8a–d was determined using a colorimetric assay based the conversion of MTT (3-(4,5-dimethylthiazol-2-yl)-2,5-diphenyltetrazolium bromide) to formazan as described previously. TZM-bl cells were plated into 96-well tissue culture plates 1 day prior to performing the MTT assay. A series of 10 3-fold dilutions of each compound was performed from a starting concentration of 10 mM and each dilution was tested for a reduction in cell viability according to the manufacturer’s instructions (CyQuant MTT Cell Viability Assay, ThermoFisher, V13154). Wells containing TZM-bl cells with media only were used as a control. Briefly, serial dilutions of each test compound were added to the plated TZM-bl cells. At 48 h, the media was removed and replaced with 100 mL of fresh culture medium. 10 mL of 12 mM MTT solution was added to each well and incubated at 37 °C for 4 h. 85 mL of supernatant was then removed from each well and replaced with 50 mL of DMSO. Following a 10 min incubation at 37 °C, the absorbance of each well was determined at 540 nm using a Biotek Synergy Neo2 multimode reader and Gen5 v3.02 software.
The next series relates to Caco-2 cell-derived CMs. The series is classed as in vitro ADME, human. The conditions noted are these: for increase in CM concentration compared to TXL / CM concentration relative to ω-unmodified BOG prodrug (21a vs 8a, 21b vs 8b): 20 h. The procedure: [formula] 1 Chylomicron (CM) Isolation and Drug Quantification Methods ^a a (1) Caco-2 cells were grown to confluence. (2) Lipid mix was added to media (final drug concentration of 10 μM), and cells were incubated for 4 h. (3) Cells were washed 3× with PBS. (4) Cells were incubated in fresh media overnight. (5) CM-containing media was collected. (6) Media was combined with a 1.20 g/mL NaCl solution in an ultracentrifugation tube, 500 μL H2O was carefully layered on top, and the mixture was centrifuged at 10,950 RCF for 3 h. (7) The CM-containing upper layer was carefully isolated with a fine-tip pipette. (8) Test drug was then extracted from the CM layer with 70% ACN and quantified using LC-MS/MS.
With the presence of CMs in isolated Caco-2 cell extracts confirmed and reproducibility validated across replicates and different drugs, we were eager to investigate drug incorporation during CM biogenesis in vitro. Accordingly, we added test compound (Figure ) to differentiated Caco-2 cells along with the lipid mix to a final test drug concentration of 10 μM. While 10 μM was selected as a standard concentration for these studies, higher concentrations could allow detection of other compounds with low CM association in future experiments. In either case, CMs secreted by Caco-2 cells can be isolated postincubation, and drug concentrations within CMs can be assessed using highly sensitive LC-MS/MS methodology. Positive (high c Log D) and negative (low c Log D) control compounds were selected to validate this assay. […] Given these properties, we expected CAB to readily package into CMs in vitro. […]. […] This sets the stage for quantitative comparisons of TXL and its functionalized analogs, which are detailed below.
At 14-days postconfluence, Caco-2 cells were incubated in a lipid mixture to induce secretion of CMs. For the lipid solution, oleic acid (50 mg), lecithin (40 mg), and sodium taurocholate (48 mg) were weighted out into an Eppendorf tube, and the volume was brought up to 900 μL with PBS, followed by vigorous vortexing to ensure sample homogeneity. This 100× lipid mixture was then diluted into growth media to achieve the desired concentrations (2 mM oleic acid, 1.36 mM lecithin, 1 mM sodium taurocholate) by adding 500 μL of the lipid mixture to 49.5 mL of media. The lipid-supplemented media was thoroughly mixed and sterilized by filtration using a 250 mL sterile vacuum filter. For the drug-exposed CM experiments, each test compound was dissolved in 2 mM human serum albumin (HAS, Sigma, essentially fatty acid free) in DPBS, then added to 10 mL aliquots of lipid-containing media to achieve a final concentration of 10 μM. Subsequently, lipid-containing media was added to Caco-2 cells and incubated for 4 h at 37 °C. After incubation, cells were washed twice with PBS then incubated for 4, 8, or 20 h at 37 °C in fresh, colorless growth medium. Media was collected into 15 mL falcon tubes and centrifuged at 2000g to remove cell debris. Postcentrifugation, the supernatant was transferred to 50 mL Nalgene Oak Ridge High-Speed PPCO Centrifuge Tubes. Next, to adjust the density for ultracentrifugation, 1.19 g of NaCl in 2 mL of deionized (DI) H2O were added to reach a final volume of 5 mL, corresponding to a density of 1.20 g/mL. This mixture was dissolved by vortexing and balanced by weight. 500 μL of DI H2O was carefully overlaid onto the mixture. Ultracentrifugation was performed for 2 h and 30 min at 10,920 relative centrifugal force (RCF). Immediately after centrifugation, the top 500 μL layer, containing CMs, was carefully collected using a gel-loading pipet tip.
To an aliquot of CM extract was added an equal volume of ACN into 1.5 mL Eppendorf tubes. Tubes were shaken for 1 h at rt then centrifuged at 15,000 RCF to remove debris. The clear supernatant was transferred to a glass vial and concentrated under reduced pressure to yield a dry solid. Sample was then reconstituted in 70% ACN in H2O, filtered and then analyzed. […]

Molecules are shown by their SMILES.

In the case of `C[C@H](Cn1cnc2c(N)ncnc21)OCP(=O)(O)OCCCOCCCCCCCCCCCCCCCC(F)(F)F` [15a, Ammonium[(1R)-2-(6-aminopurin-9-yl)-1-methyl-ethoxy]methyl-[3-(16,16,16-trifluorohexadecoxy)propoxy]phosphinate], the half-life at 3 µM in series [1] and in series [2] was more than 2 h throughout. This compound also registered a 50% cytotoxic concentration (CC50) at 48 h in series [3] of more than 1000 nM. Also, the “increase in CM concentration compared to TXL” value (“increase in CM concentration” for short) in the series on Caco-2 cell-derived CMs (10 μM) amounted to 2.4 fold.

As to `C[C@H](Cn1cnc2c(N)ncnc21)OCP(=O)(O)OC[C@H](COCCCCCCCCCCCCCCCC(F)(F)F)OCc1ccccc1` [21a, Ammonium[(1R)-2-(6-Aminopurin-9-yl)-1-methyl-ethoxy]methyl-[(2S)-2-benzyloxy-3-(16,16,16-trifluorohexadecoxy)propoxy]phosphinate], the half-life at 3 µM in series [1] and in series [2] was more than 2 h each time. In addition, the CC50 at 48 h in series [3] (TZM-bl cells) was more than 1000 nM. Besides, the “CM concentration relative to ω-unmodified BOG prodrug (21a vs 8a, 21b vs 8b)” value in the series on Caco-2 cell-derived CMs (10 μM) is given as “approximately 1.8 fold”. In addition, in the series on Caco-2 cell-derived CMs (10 μM), the “increase in CM concentration” value worked out at 3.3 fold.

As to `C[C@H](Cn1cnc2c(N)ncnc21)OCP(=O)(O)OC[C@H](COCCCCCCCCCCCCCCCCCC(F)(F)F)OCc1ccccc1` [21b, Ammonium[(1R)-2-(6-aminopurin-9-yl)-1-methyl-ethoxy]methyl-[(2S)-2-benzyloxy-3-(18,18,18-trifluorooctadecoxy)propoxy]phosphinate], the half-life at 3 µM in series [1] is more than 2 h. In series [2], the half-life at 3 µM is more than 2 h. This compound had a CC50 at 48 h in series [3] (TZM-bl cells) of more than 1000 nM. Moreover, in the series with Caco-2 cell-derived CMs (10 μM), the “CM concentration relative to ω-unmodified BOG prodrug (21a vs 8a, 21b vs 8b)” value is on record as approximately 1.6 fold and the “increase in CM concentration” value came out at 3.8 fold.

For the compound `CCCCCCCCCCCCCCCCOCCCOP(=O)(O)CO[C@H](C)Cn1cnc2c(N)ncnc21` [TXL, hexadecyloxypropyl (HDP)-TFV, reference compound], the half-life at 3 µM in series [2] was more than 2 h. Moreover, the CC50 at 48 h in series [3] was more than 1000 nM. In the series with Caco-2 cell-derived CMs (10 μM test drug, Caco-2 cells), the “detection of compound in CM extract by LC-MS/MS” value was “successfully detected in CM isolates”. Besides, in the series with Caco-2 cell-derived CMs (8 h, 10 μM), the “concentration in CMs compared with BOG prodrugs” value is reported as “significantly greater concentrations in CMs than all BOG substituted prodrugs”.

The CC50 is the concentration at which the toxic effect on the cells reaches its halfway point. Low values mean greater toxicity to the cells, high ones lower toxicity to the cells.

For the origin of these results see publication PMC12441861, “Next-Generation Lipid Prodrugs Orally Deliver Tenofovir via Enhanced Chylomicron Incorporation” (ACS Pharmacology & Translational Science, 2025).
